Columns and labels:
[1] = target: T1, plasminogen (Homo sapiens, UniProt P00747); details: JP 2004-224737; cited from earlier work
[2] = target: T1, plasminogen; details: cited from earlier work
[3] = system: pulmonary embolism model rats; details: pulmonary embolism model rats in vivo; cited from earlier work
[4] = system: chronic hepatitis model mice; experiment: Liver function ameliorative effects in chronic hepatitis model mice (carbon tetrachloride); plasma AST, ALT, ChE; type: in vivo, ICR mice
Method: Production of chronic hepatitis model mice was carried out according to a modified version of the method of Vogten et al. (J. Mathys Vogten et al., Int. J. Colorectal Dis. (2004), 19: 387-394).
ICR mice weighing about 30 g (age: 6 weeks, males, supplier: Sankyo Labo Service) were used in the experiment after preliminarily housing for 5 days while allowing free access to solid feed (Labo MR Stock) and distilled water. The animals were housed in an animal room set to conditions consisting of a temperature of 22±2° C., humidity of 60±5% and light-dark cycle of 12 hours.
Following preliminary housing, the animals were intraperitoneally administered carbon tetrachloride (10% corn oil solution (v/v)) three times a week. The initially dose was 330 μl/kg, the second dose was […], and all subsequent doses were 500 μl/kg. This administration was carried out over the course of six weeks to produce chronic hepatitis model mice.
After administering carbon tetrachloride for 6 weeks, the animals were divided into an orniplabin dose group and control group so as to be statistically equivalent (orniplabin dose group: 7 animals, control group: 6 animals). Orniplabin was continuously administered into the abdominal cavity at 10 mg/kg. The control group was continuously administered physiological saline into the abdominal cavity at 2 ml/kg. This procedure was carried out for 14 days.
Following completion of administration, blood samples were collected from the vena cava into a syringe barrel containing anticoagulant in the form of 3.8% sodium citrate solution ( 1/10 volume of collected blood), and the resulting blood was centrifuged immediately for 20 minutes at 3000 rpm to collect the supernatant for use as blood samples.
The levels of AST ([…], GOT), ALT (alanine aminotransferase, GPT) and ChE (cholinesterase) were measured for the resulting blood samples (Hitachi Model 7180 Autoanalyzer).

[5] = 10 mg/kg into the abdominal cavity for 14 days, versus normal level

T1 sequence (P00747 20-810 limits assumed, species assumed): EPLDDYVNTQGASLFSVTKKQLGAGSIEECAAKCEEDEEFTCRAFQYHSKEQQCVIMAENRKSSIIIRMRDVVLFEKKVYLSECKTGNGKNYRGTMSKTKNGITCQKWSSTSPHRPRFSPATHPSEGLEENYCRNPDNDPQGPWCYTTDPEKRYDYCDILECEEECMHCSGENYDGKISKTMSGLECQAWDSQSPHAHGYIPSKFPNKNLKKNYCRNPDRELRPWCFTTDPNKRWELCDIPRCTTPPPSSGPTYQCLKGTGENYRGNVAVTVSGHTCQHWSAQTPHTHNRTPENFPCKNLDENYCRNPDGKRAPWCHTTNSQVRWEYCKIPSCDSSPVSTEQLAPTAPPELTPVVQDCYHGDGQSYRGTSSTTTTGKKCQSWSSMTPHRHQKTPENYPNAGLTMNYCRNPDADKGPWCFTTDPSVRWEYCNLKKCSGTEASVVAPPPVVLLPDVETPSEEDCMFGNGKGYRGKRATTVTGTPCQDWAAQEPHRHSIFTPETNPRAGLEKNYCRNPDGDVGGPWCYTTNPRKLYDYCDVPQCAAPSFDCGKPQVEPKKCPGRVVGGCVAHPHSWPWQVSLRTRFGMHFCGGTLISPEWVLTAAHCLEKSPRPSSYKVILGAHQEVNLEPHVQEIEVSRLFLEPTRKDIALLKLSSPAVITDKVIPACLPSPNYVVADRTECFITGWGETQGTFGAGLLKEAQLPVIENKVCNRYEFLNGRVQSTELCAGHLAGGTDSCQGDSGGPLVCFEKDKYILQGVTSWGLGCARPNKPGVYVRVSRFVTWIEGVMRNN

SMILES: CC(C)=CCC/C(C)=C/CCC1(C)Oc2c(c(O)cc3c2CN(CCCC(C(=O)O)N2Cc4c(cc(O)c5c4OC(C)(CC/C=C(\C)CCC=C(C)C)C(O)C5)C2=O)C3=O)CC1O (stereo not drawn) [orniplabin]
- plasminogen activation [1]: promotes plasminogen activation
- binding of plasminogen to fibrin [2]: promotes binding of plasminogen to fibrin
- dissolution of pulmonary embolisms thrombus [3]: promotes dissolution of pulmonary embolisms thrombus
- plasma AST, orniplabin dose group as compared with the control group ([4]; 10 mg/kg into the abdominal cavity for 14 days after 6 weeks carbon tetrachloride, FIG. 1): significant (P<0.01) decrease
- plasma ALT, orniplabin dose group versus control group ([4]; 10 mg/kg into the abdominal cavity for 14 days after 6 weeks carbon tetrachloride, FIG. 2): no significant differences observed
- plasma ChE, orniplabin dose group as compared with the control group ([4]; 10 mg/kg into the abdominal cavity for 14 days after 6 weeks carbon tetrachloride, FIG. 3): significant (P<0.01) increase
- plasma ALT, orniplabin dose group as compared with the normal group ([4]; 10 mg/kg into the abdominal cavity for 14 days, FIG. 2): increases were not observed
- cholinesterase levels (protein synthesis ability of the liver) [4, 5]: recovered to the same level as the normal level
- degree of impaired liver function (AST and ALT) [4, 5]: recover to nearly the normal level

From patent US8193173B2, “Liver function ameliorant” (Tokyo University of Agriculture and Technology TLO Co., Ltd., priority 2006, dated 2012)
